Experiment: Compatibility of surfactants with copper sulfate solutions for coating fabric
Format: physicochemical

Compound | precipitation from copper sulfate solutions / solution suitable for coating | solubility in solutions of copper sulfate (in solutions of copper sulfate)
CCCCCCCCCCCC[N+](C)(C)CCCS(=O)(=O)O [lauryl sulfobetaine] | did not cause precipitation | –
sodium dodecylbenzenesulfonate | – | very low and insufficient solubility
CCCCCCCCCCCC[N+](C)(C)[O-] [dimethyl dodecylamine N-oxide] | causing precipitation | –
CCCCCCCCCCCCOS(=O)(=O)[O-].[Na+] [sodium dodecylsulfate] | acceptable solution for coating | –
CCCCCCCCCCCC[N+](C)(C)CC(=O)O [dimethyl dodecylglycine betaine] | did not cause precipitation | –
